Measured values as given in patent US9174992B2, “Heterobicyclic compounds” (Amgen Inc., priority 2012, dated 2015).
Values joined by “and” are separate entries in the source; they are usually repeats but may differ in a detail not shown here. Identical values can stand only once.

Molecular target: PDE10A (UniProt Q9Y233)
Assay: PDE10 enzyme inhibition, IMAP TR-FRET assay (Example A, MPDE10A7 Enzyme Activity and Inhibition)
Format: biochemical
Settings: approximate IC50 value, Table 10
Experimental: Enzyme Activity. An IMAP TR-FRET assay was used to analyze the enzyme activity (Molecular Devices Corp., Sunnyvale Calif.). 10 μL of serial diluted PDE10A (BPS Bioscience, San Diego, Calif.) or tissue homogenate was incubated with equal volumes of diluted fluorescein labeled cAMP or cGMP for 90 min in 384-well Polypropylene assay plates (Greiner, Monroe, N.C.) at room temperature. After incubation, the reaction was stopped by adding 55 μL of diluted binding reagents and was incubated for 4 hours to overnight at room temperature. The plates were read on an Envision (Perkin Elmer, Waltham, Mass.) for time resolved fluorescence resonance energy transfer. The data were analyzed with Genedata Screener® (Lexington, Mass.).
Enzyme Inhibition. To check the inhibition profile, 0.2 μL of serial diluted compounds were incubated with 10 μL of diluted PDE10 enzyme (BPS Bioscience, San Diego, Calif.) or tissue homogenate in a 384-well Polypropylene assay plate (Greiner, Monroe, N.C.) for 60 min at room temperature. After incubation, 10 μL of diluted fluorescein labeled cAMP or cGMP substrate were added and incubated for 90 min at room temperature. The reaction was stopped by adding 55 μL of diluted binding reagents and plates were read on an Envision (Perkin Elmer, Waltham, Mass.) for time resolved fluorescence resonance energy transfer. The data were analyzed with Genedata Screener® (Lexington, Mass.).
IC50 curves were generated from the raw data collected from the […] and fitted with a four-parameter logistic equation using in-house data analysis tool, Activity Base.

For `O=C1N([C@H]2C[C@H](Nc3nc4ccccc4s3)C2)c2ncccc2C12CCC2` [Example 35, 1′-(trans-3-(benzo[d]thiazol-2-ylamino)cyclobutyl)spiro[cyclobutane-1,3′-pyrrolo[2,3-b]pyridin]-2′(1′H)-one], which IC50 is on record?
The IC50 was 0.115 nM.

Which IC50 does the source give for `O=C1N([C@H]2C[C@H](Nc3nc4ccccc4s3)C2)c2ncccc2C12CCCC2` [Example 36, 1′-(Trans-3-(benzo[d]thiazol-2-ylamino)cyclobutyl)spiro[cyclopentane-1,3′-pyrrolo[2,3-b]pyridin]-2′(1′H)-one] here?
The IC50 was 0.134 nM.

Which IC50 does the source give for `O=C1N([C@H]2C[C@H](Nc3nc4ccccc4s3)C2)c2ncccc2C12CCOCC2` [Example 37, 1′-(Trans-3-(benzo[d]thiazol-2-ylamino)cyclobutyl)-2,3,5,6-tetrahydrospiro[pyran-4,3′-pyrrolo[2,3-b]pyridin]-2′(1′H)-one] here?
The IC50 was 0.14 nM.

Which IC50 does the source give for `Cc1ccc(N[C@H]2C[C@H](N3C(=O)C(C)(C)c4cccnc43)C2)nc1` [Example 38, 3,3-Dimethyl-1-(trans-3-(5-methylpyridin-2-yl)amino)cyclobutyl-1H-pyrrolo[2,3-b]pyridin-2(3H)-one] here?
The IC50 was 0.166 nM.

For `COc1ccc(N[C@H]2C[C@H](N3C(=O)C(C)(C)c4cccnc43)C2)nc1` [Example 39], which IC50 is on record?
The IC50 was 0.212 nM.

`CC1(C)C(=O)N([C@H]2C[C@H](Nc3ccc(Br)cn3)C2)c2ncccc21` [Example 40, 1-(Trans-3-((5-bromopyridin-2-yl)amino)cyclobutyl)-3,3-dimethyl-1H-pyrrolo[2,3-b]pyridin-2(3H)-one] was tested. Which IC50 did it give?
Its IC50 is 0.263 nM.

Which IC50 does the source give for `CC1(C)C(=O)N([C@H]2C[C@H](Nc3ccc(C4CC4)cn3)C2)c2ncccc21` [Example 41, 1-(Trans-3-((5-cyclopropylpyridin-2yl)amino)cyclobutyl)-3,3-dimethyl-1H-pyrrolo[2,3-b]pyridin-2(3H)-one] here?
The IC50 was 0.329 nM.

For `CC1(C)C(=O)N([C@H]2C[C@H](Nc3ccc(Cl)cn3)C2)c2ncccc21` [Example 42, 1-(Trans-3-((5-chloropyridin-2-yl)amino)cyclobutyl)-3,3-dimethyl-1H-pyrrolo[2,3-b]pyridin-2(3H)-one], which IC50 is on record?
Its IC50 is 0.856 nM.

With `CC(=O)c1ccc(N[C@H]2C[C@H](N3C(=O)C(C)(C)c4cccnc43)C2)nc1` [Example 43, 1-(trans-3-((5-acetylpyridin-2-yl)amino)cyclobutyl)-3,3-dimethyl-1H-pyrrolo[2,3-b]pyridin-2(3H)-one] as the molecule, how does the IC50 read?
The IC50 was 1.57 nM.

With `O=C1Cc2cccnc2N1[C@H]1C[C@H](Nc2nc3ccccc3s2)C1` [Example 44, 1-(trans-3-(benzo[d]thiazol-2-ylamino)cyclobutyl)-1H-pyrrolo[2,3-b]pyridin-2(3H)-one] as the molecule, how does the IC50 read?
The IC50 was 2.44 nM.

With `COc1cccnc1N[C@H]1C[C@H](N2C(=O)C(C)(C)c3cccnc32)C1` [Example 45, 1-(Trans-3-((3-methoxypyridin-2-yl)amino)cyclobutyl)-3,3-dimethyl-1H-pyrrolo[2,3-b]pyridin-2(3H)-one] as the molecule, how does the IC50 read?
Its IC50 is 2.52 nM.

With `CC1(C)C(=O)N([C@H]2C[C@H](Nc3ccc(C(F)(F)F)cn3)C2)c2ncccc21` [Example 46, 1-(Trans-3-((5-trifuoromethylpyridin-2-yl)amino)cyclobutyl)-3,3-dimethyl-1H-pyrrolo[2,3-b]pyridin-2(3H)-one] as the molecule, how does the IC50 read?
Its IC50 is 2.53 nM.

Which IC50 does the source give for `CCc1cnc(N[C@H]2C[C@H](N3C(=O)C(C)(C)c4cccnc43)C2)nc1` [Example 47, 1-(trans-3-((5-ethylpyrimidin-2-yl)amino)cyclobutyl)-3,3-dimethyl-1H-pyrrolo[2,3-b]pyridin-2(3H)-one] here?
Its IC50 is 2.64 nM.

How did the IC50 turn out when `Cc1cnc(N[C@H]2C[C@H](N3C(=O)C(C)(C)c4cccnc43)C2)nc1` [Example 48, 1-(trans-3-((5-methylpyrimidin-2-yl)amino)cyclobutyl)-3,3-dimethyl-1H-pyrrolo[2,3-b]pyridin-2(3H)-one] was run?
Its IC50 is 3.46 nM.

How did the IC50 turn out when `CC1(C)C(=O)N([C@H]2C[C@H](Nc3ccc(Cl)cn3)C2)c2nccnc21` [Example 49] was run?
The IC50 was 3.88 nM.

Which IC50 does the source give for `COc1ccc(N(c2ccc(OC)cn2)[C@H]2C[C@H](N3C(=O)C(C)(C)c4cccnc43)C2)nc1` [Example 50, 1-(trans-3-(BIS(5-methoxypyridin-2-yl)amino)cyclobutyl)-3,3-dimethyl-1H-pyrrolo[2,3-b]pyridin-2(3H)-one] here?
The IC50 was 4.63 nM.

How did the IC50 turn out when `Cc1ccnc(N[C@H]2C[C@H](N3C(=O)C(C)(C)c4cccnc43)C2)c1` [Example 51, 1-(Trans-3-((4-methylpyridin-2-yl)amino)cyclobutyl)-3,3-dimethyl-1H-pyrrolo[2,3-b]pyridin-2(3H)-one] was run?
Its IC50 is 4.85 nM.

`CC1(C)C(=O)N([C@H]2C[C@H](Nc3ncccc3F)C2)c2ncccc21` [Example 52, 1-(Trans-3-((3-fluoropyridin-2-yl)amino)cyclobutyl)-3,3-dimethyl-1H-pyrrolo[2,3-b]pyridin-2(3H)-one] was tested. Which IC50 did it give?
Its IC50 is 5.69 nM.

`Cc1cccnc1N[C@H]1C[C@H](N2C(=O)C(C)(C)c3cccnc32)C1` [Example 53, 1-(Trans-3-((3-methylpyridin-2-yl)amino)cyclobutyl)-3,3-dimethyl-1H-pyrrolo[2,3-b]pyridin-2(3H)-one] was tested. Which IC50 did it give?
Its IC50 is 5.7 nM.

`CC1(C)C(=O)N([C@H]2C[C@H](Nc3ccc(F)cn3)C2)c2ncccc21` [Example 54, 1-(Trans-3-((5-fluoropyridin-2-yl)amino)cyclobutyl)-3,3-dimethyl-1H-pyrrolo[2,3-b]pyridin-2(3H)-one] was tested. Which IC50 did it give?
Its IC50 is 6.47 nM.

Which IC50 does the source give for `CC1(C)C(=O)N([C@H]2C[C@H](Nc3nccs3)C2)c2ncccc21` [Example 55, 3,3-Dimethyl-1-(trans-3-(thiazol-2-ylamino)cyclobutyl)-1H-pyrrolo[2,3-b]pyridine-2(3H)-one] here?
The IC50 was 7.43 nM.

`CC(=O)Nc1ccc(N[C@H]2C[C@H](N3C(=O)C(C)(C)c4cccnc43)C2)nc1` [Example 56, N-(6-((Trans-3-(3,3-dimethyl-2-oxo-2,3-dihydro-1H-pyrrolo[2,3-b]pyridine-1-yl)cyclobutyl)amino)pyridine-3-yl)acetamide] was tested. Which IC50 did it give?
The IC50 was 8.42 nM.

Which IC50 does the source give for `CC1(C)C(=O)N([C@H]2C[C@H](Nc3ncccc3Cl)C2)c2ncccc21` [Example 57] here?
Its IC50 is 11 nM.

`COc1ccnc(N[C@H]2C[C@H](N3C(=O)C(C)(C)c4cccnc43)C2)n1` [Example 58, 1-(trans-3-((4-methoxypyrimidin-2-yl)amino)cyclobutyl)-3,3-dimethyl-1H-pyrrolo[2,3-b]pyridin-2(3H)-one] was tested. Which IC50 did it give?
Its IC50 is 13 nM.

With `CC1(C)C(=O)N([C@H]2C[C@H](Nc3ccc(C#N)cn3)C2)c2ncccc21` [Example 59, 1-(Trans-3-((5-cyanopyridin-2-yl)amino)cyclobutyl)-3,3-dimethyl-1H-pyrrolo[2,3-b]pyridin-2(3H)-one] as the molecule, how does the IC50 read?
Its IC50 is 15.9 nM.

For `CC1(C)C(=O)N([C@H]2C[C@H](Nc3ncc(Br)cn3)C2)c2ncccc21` [Example 60, 1-(Trans-3-((5-bromopyrimidin-2-yl)amino)cyclobutyl)-3,3-dimethyl-1H-pyrrolo[2,3-b]pyridin-2(3H)-one], which IC50 is on record?
The IC50 was 19.3 nM.

`CC1(C)C(=O)N([C@H]2C[C@H](Nc3ncc(Cl)cn3)C2)c2ncccc21` [Example 61, 1-(trans-3-((5-chloropyrimidin-2-yl)amino)cyclobutyl)-3,3-dimethyl-1H-pyrrolo[2,3-b]pyridin-2(3H)-one] was tested. Which IC50 did it give?
Its IC50 is 30.4 nM.

For `Cc1ccnc(N[C@H]2C[C@H](N3C(=O)C(C)(C)c4cccnc43)C2)n1` [Example 63, 1-(trans-3-((4-methylpyrimidin-2-yl)amino)cyclobutyl)-3,3-dimethyl-1H-pyrrolo[2,3-b]pyridin-2(3H)-one], which IC50 is on record?
The IC50 was 38.6 nM.

Which IC50 does the source give for `CC1(C)C(=O)N([C@H]2C[C@H](Nc3nccc(Cl)n3)C2)c2ncccc21` [Example 64, 1-(trans-3-((4-chloropyrimidin-2-yl)amino)cyclobutyl)-3,3-dimethyl-1H-pyrrolo[2,3-b]pyridin-2(3H)-one] here?
Its IC50 is 43.3 nM.

With `CC1(C)C(=O)N([C@H]2C[C@H](Nc3cnccn3)C2)c2ncccc21` [Example 65, 3,3-Dimethyl-1-(trans-3-(pyrazin-2-ylamino)cyclobutyl)-1H-pyrrolo[2,3-b]pyridine-2(3H)-one] as the molecule, how does the IC50 read?
Its IC50 is 44.8 nM.

`CC1(C)C(=O)N([C@H]2C[C@H](Nc3cccc(Cl)n3)C2)c2ncccc21` [Example 66, 1-(trans-3-((6-chloropyridin-2-yl)amino)cyclobutyl)-3,3-dimethyl-1H-pyrrolo[2,3-b]pyridin-2(3H)-one] was tested. Which IC50 did it give?
Its IC50 is 51.1 nM.

With `CC1(C)C(=O)N([C@H]2C[C@H](Nc3nccc(C(F)(F)F)n3)C2)c2ncccc21` [Example 67] as the molecule, how does the IC50 read?
The IC50 was 35.6 nM and 59 nM.

For `CC1(C)C(=O)N([C@H]2C[C@H](Nc3cccnn3)C2)c2ncccc21` [Example 68, 3,3-Dimethyl-1-(trans-3-(pyridazin-3-ylamino)cyclobutyl)-1H-pyrrolo[2,3-b]pyridine-2(3H)-one], which IC50 is on record?
Its IC50 is 158 nM.

Which IC50 does the source give for `CC1(C)C(=O)N([C@H]2C[C@H](Nc3nc(-c4ccccc4)cs3)C2)c2ncccc21` [Example 69, 3,3-Dimethyl-1-(trans-3-((4-phenylthiazol-2-yl)amino)cyclobutyl)-1H-pyrrolo[2,3-b]pyridine-2(3H)-one] here?
Its IC50 is 167 nM.

`CC1(C)C(=O)N([C@H]2C[C@H](Nc3ncc(C(F)(F)F)cn3)C2)c2ncccc21` [Example 70, 1-(trans-3-((5-(trifluoromethyl)pyrimidin-2-yl)amino)cyclobutyl)-3,3-dimethyl-1H-pyrrolo[2,3-b]pyridin-2(3H)-one] was tested. Which IC50 did it give?
The IC50 was 180 nM.
